Patent US11820984B2, “Double-helix oligonucleotide construct comprising double-stranded miRNA and use thereof” (BIONEER CORPORATION, priority 2018, dated 2023)

What was measured:
[1] = test system: PC9/GR, PC9/ER, H1975, H596 and H1650 cell lines having resistance to erlotinib; assay: relative cell viability (CellTiter-Glo), erlotinib-resistant lines; assay type: cell-based; conditions: cell lines having resistance to erlotinib (EGFR T790M etc.), 96 hours
Method: After 96 hours of additional culture, the relative viability of the cells was measured. […] On the other hand, PC9/GR and PC9/ER contain delE764-A750 mutation, like PC9, and have T790M mutation. […] H1975 has L858R and T790M mutations, H596 has overexpressed EGFR, and H1650 has delE764-A750 mutation. […] The cell viability was measured using the CellTiter-Glo used in Example 1.

PC9 cell line = assay: relative cell viability (CellTiter-Glo), erlotinib-sensitive line; assay type: cell-based; conditions: PC9, 96 hours
Method: After 96 hours of additional culture, the relative viability of the cells was measured. These cell lines were used because they have genetic characteristics and drug resistance as follows. […] On the other hand, PC9/GR and PC9/ER contain delE764-A750 mutation, like PC9, and have T790M mutation. […] H1975 has L858R and T790M mutations, H596 has overexpressed EGFR, and H1650 has delE764-A750 mutation. […] The cell viability was measured using the CellTiter-Glo used in Example 1.

[2] = test system: PC9 and PC9/ER cell lines; assay: apoptosis analysis by annexin V / propidium iodide flow cytometry (FACS); assay type: cell-based; conditions: RNAiMax transfection, 48 hours, versus miRNA control
Method: After 48 hours of additional culture, the cells were treated with FITC fluorescent dye-labeled annexin V and propidium iodide (PI) and analyzed by flow cytometry (FACS).

3′ UTR of EGFR mRNA = assay: luciferase assay with EGFR 3′ UTR firefly luciferase vector in HEK cells; assay type: cell-based, human
Source text: Since miRNA inhibits protein production from target mRNA by binding to the 3′ UTR (untranslated region) of the target mRNA, luciferase assay is generally used as a method of directly measuring the relationship between miRNA and the target mRNA. Using the TargetScan software, a 3′ UTR sequence comprising a miRNA binding sequence was predicted. The predicted 3′ UTR sequence was cloned into the 3′ UTR of firefly luciferase by a gene cloning technique. The constructed vector and the miRNA of interest were co-transfected into human embryonic kidney (HEK) cells, and the luciferase expression level of the vector was measured. […] At this time, in order to correct the transfection efficiency, Renilla luciferase was also transfected to correct the measurement value. After co-transfection of the miRNA, firefly luciferase and Renilla luciferase, the cells were cultured for 48 hours, and then the luciferase activity was measured using a luminometer.

[3] = test system: proteins involved in the EGFR signaling pathway; assay: Western blot analysis of proteins involved in the EGFR signaling pathway; assay type: cell-based
Source text: It is known that the EGFR signaling pathway in the lung cancer cell lines used in the Examples is activated due to the presence of mutation in the EGFR protein and activation of the EGFR signaling pathway plays an important role in the survival of the cell lines.

EGFR mRNA = assay: RT-qPCR relative expression level of EGFR mRNA; assay type: cell-based; conditions: PC9, PC9/ER, H1975 and H596, versus negative control
[4] = test system: lung cancer cell lines H2009, H596, H1650, PC9, PC9/GR, H1975, HCC827, and A549; assay: miRNA library screening, inhibition of proliferation (CellTiter-Glo); assay type: cell-based; conditions: 40 nM miRNA with RNAiMax, 96 hours, eight lung cancer cell lines
Method: Using the same miRNA library used in Korean Patent Application No. 10-2016-0022462, an experiment was performed to screen miRNAs that induce apoptosis of lung cancer cell lines. The lung cancer cell lines used in the experiment are as follows: H2009, H596, H1650, PC9, PC9/GR, H1975, HCC827, and A549 (purchased from the ATCC or the Korean Cell Line Bank). Each of the cell lines was seeded into a 96-well plate and treated with 40 nM of each miRNA together with the transfection reagent RNAiMax (Invitrogen), and the miRNA was delivered into the cells. After 96 hours of additional culture, the relative growth of the cells was measured using CellTiter-Glo reagent (Promega) (FIGS. 1 to 4).

[5] = Western blot, versus control group

| Compound | concentration at which apoptosis of the cells could be induced [1] | concentration at which cells could be killed (PC9 cell line) | number of dead cells (annexin V/PI) [2] | luciferase activity, EGFR 3′UTR vector (3′ UTR of EGFR mRNA; HEK cells, co-transfection, 48 hours, Renilla-corrected) | luciferase activity, EGFR 3′UTR with mutations in target regions (3′ UTR of EGFR mRNA; mutations EGFR 3′UTR 250-256, 2288-2295, and 3476-3482 nt) | inhibition of pEGFR and ERK phosphorylation, apoptosis (PARP) by Western blot ([3]; PC9 cell line) | amount of ERK, an activated form of the ERK protein ([3]; Western blot) | expression level of phosphorylated EGFR [3, 5] | expression level of the EGFR protein [3, 5] | inhibition of pEGFR and ERK phosphorylation, apoptosis (PARP) by Western blot ([3]; other cell lines having erlotinib resistance due to EGFR T790M mutation) | expression of EGFR mRNA (EGFR mRNA) | inhibition of cell proliferation (relative growth of the cells) [4] |
| --- | --- | --- | --- | --- | --- | --- | --- | --- | --- | --- | --- | --- |
| C#Cc1cccc(Nc2ncnc3cc(OCCOC)c(OCCOC)cc23)c1 [erlotinib] | 10 µM | 0.1 µM | – | – | – | – | – | – | – | – | – | – |
| miR-544a: double-stranded miRNA consisting of SEQ ID NO: 1 (5'-AUUCUGCAUUUUUAGCAAGUUC-3') and SEQ ID NO: 2 (5'-ACUUGCUAAAAAUGCAGAAUUU-3') (listed as RNA, chemistry not given here) | – | – | significantly higher than that in the cell line treated with the miRNA control | each target mRNA was controlled directly by the miRNA | the expression inhibition phenomenon by the miRNA disappeared | inhibit activated EGFR (pEGFR) and inhibit phosphorylation of the downstream signaling factor ERK | decreased | also decreased compared to that in the control group | significantly decreased compared to that in the control group | only miR-544a exhibits this effect | decreased in all the cell lines used in the experiment | excellent effect against the cell lines used |
